Test results as given in ChEMBL document CHEMBL5260810, “Inhibition of bromodomain-containing protein 9 for the prevention of epigenetically-defined drug resistance” (Bioorg Med Chem Lett, 2017).

Tests used:
NCI-H2228 = assay: Cytotoxicity against human NCI-H2228 cells measured after 8 days; type: functional, cell-based; details: NCI-H2228, 192 h
NCI-H1155 = assay: Cytotoxicity against human NCI-H1155 cells measured after 8 days; type: functional, cell-based; details: NCI-H1155, 192 h
K562 = assay: Cytotoxicity against human K562 cells measured after 8 days; type: functional, cell-based; details: K562, 192 h
Raji = assay: Cytotoxicity against human Raji cells measured after 8 days; type: functional, cell-based; details: 192 h
[1] = Cytotoxicity against human Ci-1 cells measured after 8 days; type: functional, cell-based; details: Ci-1, 192 h
KP-4 = assay: Cytotoxicity against human KP-4 cells measured after 8 days; type: functional, cell-based; details: KP-4, 192 h
[2] = Cytotoxicity against human ATRFLOX cells measured after 8 days; type: functional, cell-based; details: 192 h
COLO 320 = assay: Cytotoxicity against human COLO 320 cells measured after 8 days; type: functional, cell-based; details: COLO 320, 192 h
GP5d = assay: Cytotoxicity against human GP5d cells measured after 8 days; type: functional, cell-based; details: 192 h
PC-3 = assay: Cytotoxicity against human PC-3 cells measured after 8 days; type: functional, cell-based; details: PC-3, 192 h
[3] = Cytotoxicity against human MDST8 cells measured after 8 days; type: functional, cell-based; details: MDST8, 192 h
[4] = Cytotoxicity against human HCC1171 cells measured after 8 days; type: functional, cell-based; details: HCC1171, 192 h
[5] = Cytotoxicity against human HCC2302 cells measured after 8 days; type: functional, cell-based; details: HCC2302, 192 h
HCC4006 = assay: Cytotoxicity against human HCC4006 cells measured after 8 days; type: functional, cell-based; details: HCC4006, 192 h
[6] = Cytotoxicity against human HCC4019 cells measured after 8 days; type: functional, cell-based; details: HCC4019, 192 h
[7] = molecular target: Bromodomain-containing protein 3 (Homo sapiens, UniProt Q15059); assay: Binding affinity to BRD3 bromodomain 1/2 (unknown origin) by BROMOscan assay
Chain of Bromodomain-containing protein 3 (Q15059 whole entry): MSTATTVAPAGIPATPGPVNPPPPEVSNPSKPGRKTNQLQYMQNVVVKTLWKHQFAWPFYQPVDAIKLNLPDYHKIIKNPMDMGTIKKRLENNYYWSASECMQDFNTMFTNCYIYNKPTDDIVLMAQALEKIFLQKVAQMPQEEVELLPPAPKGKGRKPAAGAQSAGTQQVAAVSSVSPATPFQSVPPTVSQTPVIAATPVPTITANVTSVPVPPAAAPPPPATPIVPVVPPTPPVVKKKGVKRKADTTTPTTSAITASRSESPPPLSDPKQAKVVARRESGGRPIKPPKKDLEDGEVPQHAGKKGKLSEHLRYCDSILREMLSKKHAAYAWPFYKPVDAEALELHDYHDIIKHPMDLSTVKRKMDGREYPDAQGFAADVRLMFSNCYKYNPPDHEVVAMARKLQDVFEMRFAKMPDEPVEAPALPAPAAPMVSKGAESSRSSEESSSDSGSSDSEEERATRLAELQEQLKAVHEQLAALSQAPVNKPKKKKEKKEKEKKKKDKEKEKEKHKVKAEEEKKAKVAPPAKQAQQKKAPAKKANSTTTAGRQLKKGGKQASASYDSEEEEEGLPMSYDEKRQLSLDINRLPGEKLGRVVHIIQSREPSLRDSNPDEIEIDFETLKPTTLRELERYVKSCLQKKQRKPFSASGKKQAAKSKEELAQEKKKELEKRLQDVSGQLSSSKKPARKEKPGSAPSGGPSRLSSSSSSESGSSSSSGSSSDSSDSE

[8] = molecular target: Bromodomain testis-specific protein (Homo sapiens, UniProt Q58F21); assay: Binding affinity to BRDT bromodomain 1/2 (unknown origin) by BROMOscan assay
[9] = molecular target: T1, Bromodomain and PHD finger-containing protein 3 (Homo sapiens, UniProt Q9ULD4); assay: Binding affinity to human partial length BRPF3 (E588 to G701 residues) expressed in bacterial expression system by BROMOscan assay
T1 sequence (Q9ULD4 whole entry): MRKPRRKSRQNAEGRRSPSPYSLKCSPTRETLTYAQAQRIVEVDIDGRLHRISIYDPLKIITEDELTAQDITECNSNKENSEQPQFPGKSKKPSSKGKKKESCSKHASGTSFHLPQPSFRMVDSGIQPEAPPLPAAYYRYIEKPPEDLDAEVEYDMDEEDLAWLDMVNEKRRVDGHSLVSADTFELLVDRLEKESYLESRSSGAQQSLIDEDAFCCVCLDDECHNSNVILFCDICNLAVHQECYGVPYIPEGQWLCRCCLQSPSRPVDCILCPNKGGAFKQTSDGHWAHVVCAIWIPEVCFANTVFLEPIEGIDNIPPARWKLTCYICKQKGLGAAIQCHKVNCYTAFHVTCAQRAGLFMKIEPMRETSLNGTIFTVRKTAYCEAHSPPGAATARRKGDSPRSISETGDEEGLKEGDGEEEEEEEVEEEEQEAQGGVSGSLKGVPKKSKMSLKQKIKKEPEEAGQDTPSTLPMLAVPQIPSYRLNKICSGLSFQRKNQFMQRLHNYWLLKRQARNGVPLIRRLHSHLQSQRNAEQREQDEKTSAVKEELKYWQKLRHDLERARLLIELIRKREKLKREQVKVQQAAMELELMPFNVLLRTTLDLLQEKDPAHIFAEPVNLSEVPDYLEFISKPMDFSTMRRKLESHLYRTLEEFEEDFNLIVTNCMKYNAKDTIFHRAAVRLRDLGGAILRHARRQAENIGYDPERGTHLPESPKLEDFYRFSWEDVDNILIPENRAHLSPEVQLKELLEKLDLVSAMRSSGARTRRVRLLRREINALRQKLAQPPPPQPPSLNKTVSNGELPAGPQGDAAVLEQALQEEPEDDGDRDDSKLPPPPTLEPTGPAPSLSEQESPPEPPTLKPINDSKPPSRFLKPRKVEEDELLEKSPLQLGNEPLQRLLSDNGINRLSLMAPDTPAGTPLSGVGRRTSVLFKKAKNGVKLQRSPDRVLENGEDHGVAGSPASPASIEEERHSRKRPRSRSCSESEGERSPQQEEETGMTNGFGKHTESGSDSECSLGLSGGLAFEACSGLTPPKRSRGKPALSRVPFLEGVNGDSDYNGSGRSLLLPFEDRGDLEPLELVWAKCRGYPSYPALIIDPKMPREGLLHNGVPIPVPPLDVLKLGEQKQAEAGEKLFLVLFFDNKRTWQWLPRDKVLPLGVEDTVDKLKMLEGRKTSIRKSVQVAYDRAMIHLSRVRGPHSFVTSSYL

[10] = molecular target: Mitogen-activated protein kinase 14 (Homo sapiens) (UniProt Q16539); assay: Inhibition of p38alpha (unknown origin) at 1 uM relative to control
Chain of Mitogen-activated protein kinase 14 (Homo sapiens) (Q16539 whole entry): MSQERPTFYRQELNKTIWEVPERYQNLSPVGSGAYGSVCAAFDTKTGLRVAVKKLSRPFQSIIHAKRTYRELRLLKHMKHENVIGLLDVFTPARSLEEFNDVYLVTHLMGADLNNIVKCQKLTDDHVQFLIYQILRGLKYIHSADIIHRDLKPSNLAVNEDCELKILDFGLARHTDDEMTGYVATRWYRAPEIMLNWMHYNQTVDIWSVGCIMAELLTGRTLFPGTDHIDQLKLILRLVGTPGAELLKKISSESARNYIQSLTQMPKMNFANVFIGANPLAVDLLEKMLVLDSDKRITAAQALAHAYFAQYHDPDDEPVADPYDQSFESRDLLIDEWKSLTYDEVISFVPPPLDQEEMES

[11] = molecular target: Sodium-dependent dopamine transporter (Homo sapiens) (UniProt Q01959); assay: Displacement of […] from recombinant human Dopamine transporter at 10 uM after 120 mins by scintillation counting analysis relative to control
Chain of Sodium-dependent dopamine transporter (Homo sapiens) (Q01959 whole entry): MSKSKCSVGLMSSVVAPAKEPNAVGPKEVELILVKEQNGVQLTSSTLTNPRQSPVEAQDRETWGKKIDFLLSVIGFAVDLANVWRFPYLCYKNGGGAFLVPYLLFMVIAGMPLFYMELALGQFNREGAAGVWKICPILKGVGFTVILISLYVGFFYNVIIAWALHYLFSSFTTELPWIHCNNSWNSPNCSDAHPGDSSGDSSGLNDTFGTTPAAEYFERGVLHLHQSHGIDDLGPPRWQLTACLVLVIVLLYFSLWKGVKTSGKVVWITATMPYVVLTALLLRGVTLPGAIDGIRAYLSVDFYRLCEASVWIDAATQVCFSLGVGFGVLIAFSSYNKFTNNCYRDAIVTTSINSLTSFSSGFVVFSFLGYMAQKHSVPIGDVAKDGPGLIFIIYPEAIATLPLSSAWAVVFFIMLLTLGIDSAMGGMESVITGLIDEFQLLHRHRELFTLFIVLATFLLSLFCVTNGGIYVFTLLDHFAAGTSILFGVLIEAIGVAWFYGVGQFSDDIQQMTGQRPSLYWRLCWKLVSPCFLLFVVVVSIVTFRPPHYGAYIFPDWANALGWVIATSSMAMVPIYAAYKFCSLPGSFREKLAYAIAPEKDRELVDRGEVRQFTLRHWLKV

**Q.** With `C/C=C/Cn1cc(-c2cc(OC)c(C(=O)N3CCOCC3)cc2OC)c2cc(C)[nH]c2c1=O` as the molecule, how does the IC50 (NCI-H2228) read?
**A.** 2 µM

**Q.** And the IC50 (NCI-H1155)?
**A.** 2 µM

**Q.** What about the IC50 (K562) of the same molecule?
**A.** 2 µM

**Q.** What about the IC50 (Raji) of the same molecule?
**A.** 2 µM

**Q.** And the IC50 [1]?
**A.** 2 µM

**Q.** And the IC50 (KP-4)?
**A.** 2 µM

**Q.** What about the IC50 [2] of the same molecule?
**A.** 2 µM

**Q.** And the IC50 (COLO 320)?
**A.** 2 µM

**Q.** What about the IC50 (GP5d) of the same molecule?
**A.** 2 µM

**Q.** What about the IC50 (PC-3) of the same molecule?
**A.** 2 µM

**Q.** What about the IC50 [3] of the same molecule?
**A.** 2 µM

**Q.** And the IC50 [4]?
**A.** 2 µM

**Q.** What about the IC50 [5] of the same molecule?
**A.** 2 µM

**Q.** And the IC50 (HCC4006)?
**A.** 2 µM

**Q.** And the IC50 [6]?
**A.** 2 µM

**Q.** What about the Kd [7] of the same molecule?
**A.** > 10 µM

**Q.** And the Kd [8]?
**A.** > 10 µM

**Q.** And the Kd [9]?
**A.** > 10 µM

**Q.** And the inhibition [10]?
**A.** 3%

**Q.** And the Activity [11]?
**A.** 11%

**Q.** Which IC50 (NCI-H2228) does the source give for `C/C=C/Cn1cc(-c2ccc(C(C)(C)O)cc2OC)c2cc[nH]c2c1=O` here?
**A.** 20 µM

**Q.** What about the IC50 (NCI-H1155) of the same molecule?
**A.** 20 µM

**Q.** What about the IC50 (K562) of the same molecule?
**A.** 20 µM

**Q.** What about the IC50 (Raji) of the same molecule?
**A.** 12.4 µM

**Q.** What about the IC50 [1] of the same molecule?
**A.** 15 µM

**Q.** What about the IC50 (KP-4) of the same molecule?
**A.** 20 µM

**Q.** What about the IC50 [2] of the same molecule?
**A.** 20 µM

**Q.** What about the IC50 (COLO 320) of the same molecule?
**A.** 20 µM

**Q.** And the IC50 (GP5d)?
**A.** 20 µM

**Q.** And the IC50 (PC-3)?
**A.** 20 µM

**Q.** And the IC50 [3]?
**A.** 20 µM

**Q.** And the IC50 [4]?
**A.** 20 µM

**Q.** What about the IC50 [5] of the same molecule?
**A.** 20 µM

**Q.** And the IC50 (HCC4006)?
**A.** 20 µM

**Q.** And the IC50 [6]?
**A.** 20 µM

**Q.** What about the Kd [7] of the same molecule?
**A.** 5.5 µM

**Q.** What about the Kd [8] of the same molecule?
**A.** 1.2 µM

**Q.** And the Kd [9]?
**A.** > 10 µM

**Q.** What about the inhibition [10] of the same molecule?
**A.** 7%

**Q.** And the Activity [11]?
**A.** 15%

**Q.** Which IC50 (NCI-H2228) does the source give for `C/C=C/Cn1cc(-c2ccc(C(=O)N3CCOCC3)cc2)c2cc[nH]c2c1=O` here?
**A.** 20 µM

**Q.** What about the IC50 (NCI-H1155) of the same molecule?
**A.** 20 µM

**Q.** And the IC50 (K562)?
**A.** 20 µM

**Q.** What about the IC50 (Raji) of the same molecule?
**A.** 20 µM

**Q.** What about the IC50 [1] of the same molecule?
**A.** 20 µM

**Q.** And the IC50 (KP-4)?
**A.** 20 µM

**Q.** What about the IC50 [2] of the same molecule?
**A.** 20 µM

**Q.** What about the IC50 (COLO 320) of the same molecule?
**A.** 20 µM

**Q.** What about the IC50 (GP5d) of the same molecule?
**A.** 20 µM

**Q.** What about the IC50 (PC-3) of the same molecule?
**A.** 20 µM

**Q.** What about the IC50 [3] of the same molecule?
**A.** 20 µM

**Q.** What about the IC50 [4] of the same molecule?
**A.** 20 µM

**Q.** What about the IC50 [5] of the same molecule?
**A.** 20 µM

**Q.** And the IC50 (HCC4006)?
**A.** 20 µM

**Q.** What about the IC50 [6] of the same molecule?
**A.** 20 µM

**Q.** What about the Kd [7] of the same molecule?
**A.** 4.4 µM

**Q.** And the Kd [8]?
**A.** 2.9 µM

**Q.** And the Kd [9]?
**A.** > 10 µM

**Q.** What about the inhibition [10] of the same molecule?
**A.** 0.9%

**Q.** And the Activity [11]?
**A.** 15%

**Q.** What does the source list for `C/C=C/Cn1cc(-c2cc(OC)c(C(C)(C)O)cc2OC)c2cc(C)[nH]c2c1=O`?
**A.** Kd [7]: > 10 µM; Kd [8]: 6.2 µM; Kd [9]: > 10 µM
